Data taken from ChEMBL document CHEMBL5120764, “Isarubrolone C Promotes Autophagic Degradation of Virus Proteins via Activating ATG10S in HepG2 Cells” (J Nat Prod, 2022).
Activity calls are given as the source filed them.

Assays:
Type in all cases: functional, cell-based
HepG2 [1] = test: Induction of autophagy in human HepG2 cells transfected with HBx assessed as decrease in HBx protein level upto 10 uM and measured after 6 hrs by western blot analysis; conditions: DDE = dose-dependent effect
HepG2 [2] = test: Effect on HIV-RT degradation in human HepG2 cells transfected with HIV-RT at 10 uM pretreated with proteosome inhibitor MG132 for 12 hrs followed by compound addition and measured after 24 hrs by western blot analysis
HepG2 [3] = test: Effect on LC3B-II protein degradation in human HepG2 cells at 10 uM pretreated with proteosome inhibitor MG132 for 12 hrs followed by compound addition and measured after 24 hrs by western blot analysis
HepG2 [4] = test: Induction of autophagy in human HepG2 cells transfected with HCV subgenomic replicon assessed as HCV-NS5B/ATG10/ATG10S combination at 10 uM incubated for 24 hrs in presence of anti-LAMP2 antibodies by co-immunoprecipitation assay
HepG2 [5] = test: Induction of autophagy in human HepG2 cells transfected with HCV subgenomic replicon assessed as HCV-CORE/ATG10/ATG10S combination at 10 uM incubated for 24 hrs in presence of anti-LAMP2 antibodies by co-immunoprecipitation assay
HepG2 [6] = test: Induction of autophagy in human HepG2 cells transfected with HCV subgenomic replicon assessed as HCV-NS5B/LC3B combination at 10 uM incubated for 24 hrs in presence of anti-LAMP2 antibodies by co-immunoprecipitation assay
HepG2 [7] = test: Induction of autophagy in human HepG2 cells transfected with HCV subgenomic replicon assessed as HCV-NS5B/P62 combination at 10 uM incubated for 24 hrs in presence of anti-LAMP2 antibodies by co-immunoprecipitation assay
HepG2 [8] = test: Upregulation of ATG10/ATG10S mRNA level in human HepG2 cells transfected with HCV sub-replicon upto 10 uM by RT-PCR analysis; conditions: DDE = dose-dependent effect
HepG2 [9] = test: Downregulation of HBVx in human HepG2 cells co-transfected with HBVx and ATG10-misMO upto 10 uM incubated for 24 hrs by western blot analysis
HepG2 [10] = test: Downregulation of HIV-RT in human HepG2 cells transfected with HIV-RT upto 10 uM incubated for 24 hrs by western blot analysis
HepG2 [11] = test: Upregulation of endogenous ATG10S activated co-localisation of HIV-RT with LC3B in human HepG2 cells co-transfected with HIV-RT and ATG10-misMO by cellular immunofluorescence assay
HepG2 [12] = test: Upregulation of endogenous ATG10S activated co-localisation of HIV-RT with LAMP2 in human HepG2 cells co-transfected with HIV-RT and ATG10-misMO by cellular immunofluorescence assay
HepG2 [13] = test: Upregulation of IL28A mRNA expression level in human HepG2 cells transfected with HCV sub-replicon upto 10 uM by qRT-PCR analysis; conditions: DDE = dose-dependent effect
HepG2 [14] = test: Upregulation of LC3B in human HepG2 cells transfected with HCV sub-replicon and gene knockdown by IL28A morpholinos at 10 uM incubated for 24 hrs by western blot analysis
HepG2 [15] = test: Induction of autophagy in human HepG2 cells transfected with HIV-RT assessed as increase in HIV-RT-LC3B interaction level at 10 uM incubated for 24 hrs in presence of anti-Flag antibodies by co-immunoprecipitation assay
HepG2 [16] = test: Induction of autophagy in human HepG2 cells transfected with HIV-RT assessed as increase in HIV-RT-P62 interaction level at 10 uM incubated for 24 hrs in presence of anti-Flag antibodies by co-immunoprecipitation assay
HepG2 [17] = test: Induction of autophagy in human HepG2 cells transfected with HCV subgenomic replicon assessed as HCV-CORE/P62 combination at 10 uM incubated for 24 hrs in presence of anti-LC3B antibodies by co-immunoprecipitation assay
HepG2 [18] = test: Induction of autophagy in human HepG2 cells transfected with HCV subgenomic replicon assessed as HCV-CORE/LAMP2 combination at 10 uM incubated for 24 hrs in presence of anti-LC3B antibodies by co-immunoprecipitation assay
HepG2 [19] = test: Upregulation of ATG10/ATG10S mRNA level in human HepG2 cells transfected with HBx upto 10 uM by RT-PCR analysis; conditions: DDE = dose-dependent effect
HepG2 [20] = test: Upregulation of HBx in human HepG2 cells transfected with HBx and gene knockdown by IL28A morpholinos at 10 uM incubated for 24 hrs by western blot analysis
HepG2 [21] = test: Upregulation of LC3B in human HepG2 cells transfected with ZIKV-NS5 and gene knockdown by IL28A morpholinos at 10 uM incubated for 24 hrs by western blot analysis
HepG2 [22] = test: Induction of autophagy in human HepG2 cells transfected with HIV-RT and gene knockdown by IL28A morpholinos assessed as LC3B and LAMP2 interaction at 10 uM incubated for 24 hrs in presence of anti-LC3B antibodies by co-immunoprecipitation assay

Measured: Activity

CC[C@@H](O)c1nc(C)cc2c1C(=O)c1cc(=O)c3c(c(O)c1-2)O[C@@H]1O[C@H](C)[C@@H](OC)[C@@H](O)[C@]31O
active: HepG2 [1] Dde | HepG2 [2] | HepG2 [3] | HepG2 [4] | HepG2 [5] | HepG2 [6] | HepG2 [7] | HepG2 [8] Dde | HepG2 [9] | HepG2 [10] | HepG2 [11] | HepG2 [12] | HepG2 [13] Dde | HepG2 [14] | HepG2 [15] | HepG2 [16] | HepG2 [17] | HepG2 [18] | HepG2 [19] Dde | HepG2 [20] | HepG2 [21] | HepG2 [22]
